Measurements published in US8822517B2, “Arylosulfonamides for the treatment of CNS diseases” (Adamed SP. Z O.O., priority 2010, dated 2014).
Marks after values point to notes of the source that are not given here.

Key:
histaminergic receptor = biological target: T1, histaminergic receptor (Cavia porcellus, UniProt P31389); experiment: Guinea-pig ileum test, antagonism of histamine contraction; details: antagonistic activity towards histaminergic receptor, agonist histamine, read-out: H ant** (pKb) (converted)
T1 construct: Terminal ileum was dissected and placed into a Krebs solution; from tissue; host or cells: guinea-pig terminal ileum segments (organ bath)
T1 sequence (P31389 whole entry): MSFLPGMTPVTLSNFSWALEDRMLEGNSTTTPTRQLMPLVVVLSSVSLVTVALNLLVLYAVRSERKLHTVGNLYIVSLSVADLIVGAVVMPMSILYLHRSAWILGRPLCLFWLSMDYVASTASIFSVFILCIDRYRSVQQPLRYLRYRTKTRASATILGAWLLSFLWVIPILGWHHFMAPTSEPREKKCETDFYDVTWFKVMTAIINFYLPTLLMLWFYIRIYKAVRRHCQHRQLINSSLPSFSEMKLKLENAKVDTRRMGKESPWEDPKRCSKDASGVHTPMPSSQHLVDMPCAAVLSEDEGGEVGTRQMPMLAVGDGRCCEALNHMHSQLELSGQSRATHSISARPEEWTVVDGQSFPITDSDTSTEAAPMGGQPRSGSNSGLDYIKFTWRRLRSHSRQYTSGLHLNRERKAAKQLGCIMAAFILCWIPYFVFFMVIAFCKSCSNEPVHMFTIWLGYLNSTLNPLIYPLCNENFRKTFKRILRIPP
Procedure: Ileum was prepared from male guinea-pigs with 300-350 g of body weight, fasted for 24 h before experiment with free access to drinking water. Terminal ileum was dissected and placed into a Krebs solution (NaCl 120 mM, KCl 5.6 mM, MgCl2 2.2 mM, CaCl2 2.4 mM, NaHCO3 19 mM, glucose 10 mM) and 2 cm-long fragments were cut. Each segment of the gut was placed in 30 ml chamber filled with the Krebs solution at 37 C, pH 7.4, with constant oxygenation (O2/CO2, 19:1), fixed by the lower end to a glass rod and by the upper end to the force-displacement transducer FDT 10-A (Biopac Systems, COMMAT, Ltd., Turkey). The preparation was allowed to stabilize in organ baths for 60 min under a resting tension of 0.5 g, washing every 15 min with fresh Krebs solution. All responses were recorded using software Biopac Systems Inc MP-35 Data Acquisition, Turkey.
In next step, stock solutions were diluted 10× in water.
The equilibration period a cumulative concentration-response curve was constructed in so each tissue for respective agonist—carbachol (3×10^−9−3×10^−6 M) or histamine (10^−8-10^−5 M) by the method of van Rossum (Ref. 24). Following the first agonist curve, tissues were incubated with one of the concentrations of tested compounds for 15 min and the next cumulative concentration curve to agonist was obtained. Only one concentration of the antagonist was tested in each piece of tissue. Experiments were repeated three to eight times.
After the equilibration period a cumulative concentration-response curve was constructed in each tissue for histamine (10^−8-10^−5 M) by the method of van Rossum. Following the first histamine curve, tissues were incubated with one of the concentrations of tested compounds for 15 min and the next cumulative concentration curve to histamine was obtained. Only one concentration of the antagonist was tested in each piece of tissue. Experiments were repeated three to seven times.
Concentration-response curves were analysed using GraphPad Prism 4.0 (GraphPad Software Inc., San Diego, Calif., USA). […]

Wistar rats [1] = experiment: Elevated plus maze test in rats
Procedure: (§1) All the experiments were performed by two observers unaware of the treatment applied between 9:00 and 14:00 on separate groups of animals. All animals were used only once and were killed immediately after the experiment.
Floor of the plus-maze was made of infrared transparent material what means that there are no visible sensors. The plus-maze was placed in a darkened room, and the center of the apparatus was illuminated with a 25 W electric bulb hanging 100 cm above. Plus-maze apparatus was connected to PC software by control chassis. Each rat was gently placed in the center of the plus-maze, facing one of the closed arms, immediately after a 5-min adaptation period in a plastic black box (60×60×35 cm). During a 5-minutes test period, automated Motor Monitor System recorded the number of entries into the closed and open arms, the time spent in and the distance (cm) covered by a rat in either type of the arms. After each trial the maze was wiped clean. All compounds were administered to 5-8 rats per treatment group.

Wistar rats [2] = experiment: MK-801-induced stereotyped behaviour in rats; details: MK-801-induced stereotyped behaviour (glutamate-related psychosis model)
Source text: (§2) Drug-naive male Wistar rats (Charles River, Sulzfeld, Germany) weighing 250-400 g were used in all experiments. Rats were housed two per standard plastic cage and kept in a room with constant environmental conditions (21-22′C, relative humidity 60%, a 12:12 light-dark cycle with lights on at 7:00 a.m.). Animals were supplied by the breeder two weeks before the onset of behavioral procedures. During this time, the subjects were weighed and handled several times. Tap water and standard lab chow (Labofeed H, WPIK, Kcynia, Poland) was available ad libitum.
(§3) An injection volume of 10 ml/kg (mice) or 2 ml/kg (rats) was used throughout and all compounds were administered intraperitoneally (i.p.), except d-amphetamine that was given subcutaneously (s.c.).
All tests were carried out in a sound-attenuated experimental room between 9:00 a.m. and 3:00 p.m. Within 24 h prior to testing, rats were habituated to glass observation cages (25×25×40 cm, W×H×L) with wood chip bedding on the floor for 20 min. […] Views of other rats in the experiment were prohibited. Fifteen minutes later, the time spent circling/head waving was recorded by a trained observer for 5 min. […] Rats were pre-injected with a test drug 60 min. before the start of the observation period.
The duration of stereotyped circling was analyzed with the aid of the Kruskal-Wallis analysis of variance (ANOVA). […]

C57BL/6J mice = experiment: Tail suspension test in C57BL/6J mice; type: in vivo
Wistar rats [3] = experiment: Forced swimming test (Porsolt's test) in rats; type: in vivo
Source text: as §2, §3
The animals were individually subjected to two experimental trials during which they were forced to swim in a cylinder (40 cm high, 18 cm in diameter) filled with warm water (25° C.) to a height of 15 cm. A video camera was mounted 50 cm above the cylinder. The first (habituation) and second (test) trial lasted 15 and 5 minutes, respectively. There was a 24-h interval between the trials. The total duration of immobility was measured during the second trial by a trained observer located in a separate room.
Weights and time of immobility were analyzed with the aid of a one-way analysis of variance (ANOVA). […]

Wistar rats [4] = experiment: Apomorphine-induced stereotyped behaviour in rats
Source text: as §2, §3
All tests were carried out in a sound-attenuated experimental room between 9:00 a.m. and 3:00 p.m. Within 24 h prior to testing, rats were habituated to glass observation so cages (25×25×40 cm, W×H×L) with wood chip bedding on the floor for 20 min. […] Rats were injected with apomorphine (0.6 mg/kg) and placed in the observation cages. […] Twenty minutes later, the time spent licking/biting and sniffing downward was recorded by a trained observer for 5 minutes (300 s). […]
The duration of stereotyped sniffing and licking/biting was analyzed with the aid of the Kruskal-Wallis analysis of variance (ANOVA). […]

Wistar rats [5] = experiment: Conditioned avoidance response (CAR) in rats
Procedure: as §3
Rats trained to avoid the foot shock were placed in the experimental chambers for a 3 min. habituation period followed by 50 CAR trials presented on a 15-s variable interval (VI) schedule. Each trial consisted of a 10 s warning tone and stimulus light (conditioned stimulus) followed by 10 s electric shock (0.5 mA). If during the initial 10 s of the trial an animal crossed through the sliding door, the tone and light were terminated, no shock was applied, and the response was considered as “an avoidance response”. If the animal crossed through the sliding door after a foot shock was initiated, the response was considered as an escape response. […] If a response was made during an intertrial interval, it was punished with 0.5 s shock (0.5 mA). […] On test days, a tested drug was administered i.p. 60 minutes before the start of the test session. Each drug was tested at 3-4 different doses in the same group of eight animals. A 7-day wash-out period was introduced between the subsequent tests. […]
Avoidances, escapes, and “none” responses were analyzed with the aid of a one-way analysis of variance (ANOVA). […]

Swiss mice = experiment: Four-plate test in Swiss mice; type: in vivo
Wistar rats [6] = experiment: Conflict drinking test (Vogel test) in rats; type: in vivo
Source text: Recording data started immediately after the first lick and every 20 licks rats were punished with an electric shock (0.5 mA, lasting 1 s). […] If a rat was drinking when an impulse was released, it received a shock.

Wistar rats [7] = experiment: 2,5-Dimethoxy-4-iodoamphetamine (DOI)-induced head twitches in rats
Source text: as §2, §3
All tests were carried out in a sound-attenuated experimental room between 9:00 a.m. and 3:00 p.m. as described above for spontaneous head twitches. […] Rats were pre-injected i.p. with a test drug 60 min. before the start of the test session. […] Five minutes later, head twitches were counted for 5 minutes. (300 s) by a trained observer.
Total numbers of head twitches (n/5 min.) were analyzed by means of the Kruskal-Wallis analysis of variance (ANOVA). The Mann-Whitney U test was used for individual post hoc comparisons.

Wistar rats [8] = experiment: Amphetamine-induced PPI deficits in rats
Source text: as §2, §3
The PPI apparatus consisted of eight startle chambers (SR-LAB, San Diego Instruments, San Diego, Calif., USA). […] Startle responses, reflecting the motion of animals in the cylinder so following the acoustic stimulus, were detected by a piezoelectric transducer mounted below the frame. […]
This interval was randomized by the SR-LAB software. Startle responses were measured for 100 ms after the onset of the last trial stimulus. […]
Startle responses (in manufacturer's arbitrary units), and magnitudes of PPI (%) were analyzed with the aid of a one-way analysis of variance (ANOVA). […]

Wistar rats [9] = experiment: Passive avoidance procedure in rats; details: passive-avoidance (model of memory disturbance)
Source text: as §2
Potentially impairing effects of test substance on learning and memory function in rats were evaluated using a step-through passive avoidance (PA) test. […]
In the training session (acquisition), animals were placed in the lighted compartment and allowed to explore it freely for 10 s. The sliding door was then opened, and the step-through latency for a rat to enter the dark compartment was measured. […]
The test (expression) session was performed 24 h after the training session. […] A step-through latency for animals to enter the dark compartment was measured with a cut-off of 300 s.
Weights and step-trough latencies were analyzed with the aid of a one-way analysis of variance (ANOVA). […]

mice = experiment: MK-801-induced locomotor hyperactivity in mice
Procedure: as §1
The locomotor activity was recorded with an Opto M3 multi-channel activity monitor (MultiDevice Software v. 1.3, Columbus Instruments). The mice were individually placed in plastic cages (22×12×13 cm) for 30 minutes habituation period, and then the crossings of each channel (ambulation) were counted during 1 h with data recording every 5 minutes. The cages were cleaned up with 70% ethanol after each mouse.
The locomotor activity was recorded according to method described above.
as §3
All the data are expressed as the mean±SEM. The statistical significance of effects was evaluated using separate one-way analysis of variance (ANOVA) with comparison between individual groups by Dunnett's test (when only one drug was given) or by the Tukey's test when two drugs were used; p<0.05, p<0.01 and p<0.001 were considered statistically significant.

[10] = biological target: serotoninergic 5-HT2C receptor (Homo sapiens, UniProt P28335); experiment: Cellular functional assay, serotoninergic 5-HT2C receptor (agonism/antagonism); type: cell-based; details: agonist effect, percent of control specific agonist response; 1×10^−6M
serotoninergic 5-HT2C receptor, sequence (P28335 33-458): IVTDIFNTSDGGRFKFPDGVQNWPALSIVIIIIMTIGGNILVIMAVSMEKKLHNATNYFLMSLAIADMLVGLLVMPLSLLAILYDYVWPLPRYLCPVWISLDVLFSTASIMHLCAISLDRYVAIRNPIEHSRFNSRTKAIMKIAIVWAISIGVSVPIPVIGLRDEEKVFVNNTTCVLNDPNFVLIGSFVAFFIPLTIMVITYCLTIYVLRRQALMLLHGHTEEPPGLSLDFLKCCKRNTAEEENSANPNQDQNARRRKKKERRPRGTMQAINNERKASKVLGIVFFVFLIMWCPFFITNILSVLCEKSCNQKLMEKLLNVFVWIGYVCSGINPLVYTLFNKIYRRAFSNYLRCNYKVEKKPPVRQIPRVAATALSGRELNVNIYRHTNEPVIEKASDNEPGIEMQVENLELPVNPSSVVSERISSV
Procedure: The compounds were tested at the concentration of 1×10^−6M.
In the Tables ag refers to agonism, and antag to antagonism).

## O=S(=O)(NCCCCN1CCN(c2nsc3ccccc23)CC1)c1cccc2ccccc12 [Compound 1, N-(4-(4-(1,2-Benzothiazol-3-yl)piperazin-1-yl)butyl)naphthalene-1-sulphonamide]
Histaminergic receptor
  Kb: 498 nM

## O=S(=O)(NCCCCN1CCN(c2nsc3ccccc23)CC1)c1ccc2ccccc2c1 [Compound 2, N-(4-(4-(1,2-Benzothiazol-3-yl)piperazin-1-yl)butyl)naphthalene-2-sulphonamide]
Histaminergic receptor
  Kb: 457 nM

## Cc1cccc(S(=O)(=O)NCCCCN2CCN(c3nsc4ccccc34)CC2)c1 [Compound 3, N-(4-(4-(1,2-Benzothiazol-3-yl)piperazin-1-yl)butyl)-3-methylbenzenesulphonamide]
Histaminergic receptor
  Kb: 148 nM

## Cc1cccc(S(=O)(=O)NCCCN2CCC(c3noc4cc(F)ccc34)CC2)c1 [Compound 22, N-[3-[4-(6-Fluoro-1,2-benzoxazol-3-yl)piperidin-1-yl]propyl]-3-methylbenzenesulphonamide]
Wistar rats [1]; anxiolytic model
  activity in elevated plus maze: active
Wistar rats [1]; elevated plus-maze (potential anxiolytic activity)
  MED [mg/kg]: ≤ 0.3 * mg/kg
Wistar rats [2]
  MED: 3 mg/kg
C57BL/6J mice; mice, antidepressant model
  activity in tail suspension test in mice: active
C57BL/6J mice; tail suspension test in C57BL/6J mice
  MED: 0.156 mg/kg
Wistar rats [3]; Porsolt forced swim test (potential antidepressant activity)
  MED: 0.3 mg/kg
Wistar rats [3]; antidepressant model
  activity in forced swim test (Porsolt) in rats: active
Wistar rats [4]
  activity in stereotyped behavior induced by apomorphine: active
Wistar rats [4]; apomorphine-induced stereotyped behaviour (dopamine-related psychosis model)
  MED: 10 mg/kg
Wistar rats [5]
  activity in active avoidance response: active
Wistar rats [5]; active-avoidance response (model of positive symptoms of schizophrenia)
  MED: 3 mg/kg
Swiss mice; four-plate test in mice
  MED: 0.312 mg/kg
Swiss mice; mice, anxiolytic model
  activity in four plates test in mice: active
Wistar rats [6]; Vogel test (potential anxiolytic activity)
  MED: 3 mg/kg
Wistar rats [6]; anxiolytic model
  activity in conflict drinking test (Vogel) in rats: active
Wistar rats [7]
  activity in stereotyped behavior induced by DOI: active
Wistar rats [7]; DOI-induced head twitches (serotonin-related psychosis model)
  MED [mg/kg]: ≤ 1 * mg/kg
Wistar rats [8]
  activity in reversal of deficits in prepulse inhibition in rats: active
Wistar rats [8]; prepulse inhibition disruption caused by amphetamine administration
  MED: 30 mg/kg
Wistar rats [9]
  MED: >30 mg/kg
mice
  activity in MK-801 induced hyperlocomotion: active
mice; minimum effective dose, MK-801-induced locomotor hyperactivity, i.p.
  MED*: 1.25 mg/kg

## Cc1c(S(=O)(=O)NCCCCN2CCN(c3nsc4ccccc34)CC2)sc2ccc(F)cc12 [Compound 65, N-[4-[4-(1,2-Benzothiazol-3-yl)piperazin-1-yl]butyl]-5-fluoro-3-methylbenzothiophene-2-sulphonamide]
[10]
  5-HT2C -ag [%]: 0%

## O=S(=O)(NCCCCN1CCN(c2nsc3ccccc23)CC1)c1cc2ccc(Cl)cc2s1 [Compound 241, N-[4-[4-(1,2-Benzothiazol-3-yl)piperazin-1-yl]butyl]-6-chlorobenzothiophene-2-sulphonamide]
[10]
  5-HT2C -ag [%]: −4%
